Here are results for three compounds from patent publication US20160106814A1, “Novel Oral Pharmaceutical Composition for Treatment of Diabetes” (NOVO NORDISK A/S, priority 2013, published 2016).

A short description of data set [1]: GLP-1 peptide degradation by GI extracts in presence of BBI. It is filed as in vitro ADME, Sprague Dawley rats. The note with it: half-life with 0.1% BBI divided by half-life without BBI, rat GI juice. The protocol: 96 well plates were coated by incubating with 0.4% BSA solution for a minimum of 60 min. To each well, 210 μl of buffer (HBSS-HEPES buffer with 0.005% Tween 20 and 0.005% BSA, pH 6.5), 30 μl of a substrate (100 μM GLP-1 peptide in buffer) and 30 μl of BBI (1%) were added. The plates were pre-incubated (before adding GI juice) for 60 min at 37° C. After addition of 30 μl of GI juice, the plates were incubated for 60 min/37° C. on shaker. Samples (40 μl) were taken at 0, 3, 6, 10, 30 and 60 min, stopped with 3 vol. cold 96% EtOH w. 1% HCOOH and centrifuged (4500 rcf for 10 min at 4° C.). The resulting supernatant from the samples were diluted 5 times with the buffer prior to LC-MS analysis. Standard samples (0.1, 0.5, 1.0, 5.0, 10.0 μM) were prepared and treated as the samples. Standard curve was analysed both at the beginning and the end of the sequence. Two replicates of each tested conditions were included. Intact GLP-1 peptide was determined in each sample. The results were plotted against the incubation time. Half-lives of the GLP-1 peptide was determined by nonlinear regression of the results using, for example Graph Pad Prism. The half-lives were expressed relative to the half-life of the GLP-1 peptide without BBI present by dividing the half-lives obtained in the presence of inhibitor with those obtained in the absence of BBI. […]

Data set [2] is described as follows: Transport of GLP-1 peptide across mucus-producing E12 cell monolayers in the presence of sodium caprate and BBI. It is filed as in vitro ADME. The note with it: for Papp A→B at 100 µM: human. The protocol: Buffer was then removed and the experiment initiated. […] Receiver samples (200 μl) were taken every 15 min.
In all samples with GLP-1 peptide and mannitol, the concentration of GLP-1 peptide was determined using a LOCI assay (or LC-MS assay) and scintillation counter, respectively.

A short description of data set [3]: Insulin peptide degradation by GI extracts in presence of BBI. As to conditions: rat; for half-life at 10 µM: male, Sprague Dawley, real gastrointestinal fluid or homogenate. The data set is classed as in vitro ADME, Sprague Dawley rats. The method, then:
96 well plates were coated by incubating with 0.4% BSA solution for minimum of 60 min. […] The plates were pre-incubated (before adding GI juice) for 60 min at 37° C. After addition of 30 μl of GI juice, the plates were incubated for 60 min/37° C. on shaker. Samples (40 μl) were taken at 0, 3, 6, 10, 30 and 60 min, stopped with 3 vol. cold 96% EtOH (ethanol) w. 1% HCOOH (formic acid) and centrifuged (4500 rcf for 10 min at 4° C.). The resulting supernatant from the samples were diluted 5 times with the buffer prior to LC-MS analysis. Standard samples (0.1, 0.5, 1.0, 5.0, 10.0 μM) were prepared and treated as the samples. Standard curve was analysed both at the beginning and the end of the sequence. Two replicates of each tested conditions were included. […] The results were plotted against the incubation time. […] GI juice was prepared from male Sprague Dawley rats (200-250 g) by excising approximately 20 cm piece of mid jejunum and rinsing the inside with 2.5 ml 0.9% sodium chloride solution. The sodium chloride solution was collected in a centrifuge tube, pooled from all rats (20) and centrifuged at 4500 rpm./10 min/4° C. The supernatant was aliquoted in tubes and stored at −80° C.

[4] abbreviates: pH 7.4, apical to basolateral, 100 μM GLP-1 peptide + 13 mM sodium caprate, without BBI.

*1 amine or outer side, *2 acyl side, *3 side chain or, on linkers, in order; H or OH if unused. Bridges are numbered along the chain shown (N, C = ends). Roman numbers before positions name the chains, in order. Side-chain parts run from the residue outwards. The star is where a group is joined. C18 diacid = O=C(O)CCCCCCCCCCCCCCCCC(=O)*; NMe2Phe = CN(C)[C@@H](Cc1ccccc1)C(=O)*; γGlu = O=C(O)[C@H](CCC(=O)[*:2])N[*:1]; AEEA = NCCOCCOCC(=O)O; Me2Gly = CN(C)CC(=O)*

`CC[C@H](C)[C@H](NC(=O)[C@H](Cc1ccccc1)NC(=O)[C@H](CCC(=O)O)NC(=O)[C@H](CCCCNC(=O)COCCOCCNC(=O)COCCOCCNC(=O)CC[C@H](NC(=O)CCCCCCCCCCCCCCCCC(=O)O)C(=O)O)NC(=O)[C@H](C)NC(=O)[C@H](C)NC(=O)[C@H](CCC(N)=O)NC(=O)CNC(=O)[C@H](CCC(=O)O)NC(=O)[C@H](CC(C)C)NC(=O)[C@H](Cc1ccc(O)cc1)NC(=O)[C@H](CO)NC(=O)[C@H](CO)NC(=O)[C@@H](NC(=O)[C@H](CC(=O)O)NC(=O)[C@H](CO)NC(=O)[C@@H](NC(=O)[C@H](Cc1ccccc1)NC(=O)[C@@H](NC(=O)CNC(=O)[C@H](CCC(=O)O)NC(=O)C(C)(C)NC(=O)[C@@H](N)Cc1cnc[nH]1)[C@@H](C)O)[C@@H](C)O)C(C)C)C(=O)N[C@@H](C)C(=O)N[C@@H](Cc1c[nH]c2ccccc12)C(=O)N[C@@H](CC(C)C)C(=O)N[C@H](C(=O)N[C@@H](CCCNC(=N)N)C(=O)NCC(=O)N[C@@H](CCCNC(=N)N)C(=O)NCC(=O)O)C(C)C` [GLP-1 peptide 1, N{Epsilon-26}-[2-[2-[2-[[2-[2-[2-[[(4S)-4-carboxy-4-(17-carboxy-heptadecanoylamino)butanoyl]amino]ethoxy]ethoxy]acetyl]amino]ethoxy]ethoxy]acetyl]-[Aib8,Arg34]-GLP-1-(7-37)-peptide]: the “Half Life (fold increase)” value in data set [1] was more than 15 fold. For the same compound, the Papp A→B at 100 µM was 0.148 ×10⁻⁶ cm/s in data set [2] (setting [4]) and 0.319 ×10⁻⁶ cm/s in data set [2] (pH 7.4, with Bowman Birk inhibitor (BBI) 0.2%, apical to basolateral, 100 μM GLP-1 peptide + 13 mM sodium caprate + 0.2% BBI).
With `CC[C@H](C)[C@H](NC(=O)[C@H](Cc1ccccc1)NC(=O)[C@H](CCC(=O)O)NC(=O)[C@H](CCCCNC(=O)COCCOCCNC(=O)COCCOCCNC(=O)CC[C@H](NC(=O)CCCCCCCCCOc1ccc(C(=O)O)cc1)C(=O)O)NC(=O)[C@H](C)NC(=O)[C@H](C)NC(=O)[C@H](CCC(N)=O)NC(=O)CNC(=O)[C@H](CCC(=O)O)NC(=O)[C@H](CC(C)C)NC(=O)[C@H](Cc1ccc(O)cc1)NC(=O)[C@H](CO)NC(=O)[C@H](CO)NC(=O)[C@@H](NC(=O)[C@H](CC(=O)O)NC(=O)[C@H](CO)NC(=O)[C@@H](NC(=O)[C@H](Cc1ccccc1)NC(=O)[C@@H](NC(=O)CNC(=O)[C@H](CCC(=O)O)NC(=O)C(C)(C)NC(=O)[C@@H](N)Cc1c[nH]cn1)[C@@H](C)O)[C@@H](C)O)C(C)C)C(=O)N[C@@H](C)C(=O)N[C@@H](Cc1c[nH]c2ccccc12)C(=O)N[C@@H](CC(C)C)C(=O)N[C@H](C(=O)N[C@@H](CCCNC(=N)N)C(=O)NCC(=O)N[C@@H](CCCNC(=N)N)C(=O)N[C@@H](CCCCNC(=O)COCCOCCNC(=O)COCCOCCNC(=O)CC[C@H](NC(=O)CCCCCCCCCOc1ccc(C(=O)O)cc1)C(=O)O)C(=O)O)C(C)C` [GLP-1 peptide 9, N{Epsilon-26}-[2-[2-[2-[[2-[2-[2-[[(4S)-4-carboxy-4-[10-(4-carboxyphenoxy)-decanoylamino]butanoyl]amino]ethoxy]ethoxy]acetyl]amino]ethoxy]ethoxy]acetyl], N{Epsilon-37}-[2-[2-[2-[[2-[2-[2-[[(4S)-4-carboxy-4-[10-(4-carboxyphenoxy)decanoylamino]butanoyl]-amino]ethoxy]ethoxy]acetyl]amino]ethoxy]ethoxy]acetyl]-[Aib8,Arg34, Lys37]-GLP-1-(7-37)-peptide], the Papp A→B in data set [2] (pH 7.4, apical to basolateral, 100 μM GLP-1 peptide + 13 mM sodium caprate + 0.2% BBI) came out at 0.379 ×10⁻⁶ cm/s; in data set [2] (setting [4]), 0.272 ×10⁻⁶ cm/s.
“I: NMe2Phe-VNQHLCGSHLVEALYLVCGERGFHYTPK([AEEA-AEEA-γGlu-C18 diacid])-OH / II: Me2Gly-IVEQCCTSICSLEQLENYCN-OH (disulfide I:6-II:6, I:18-II:19, II:5-II:10) [Insulin 2, N{A1},N{A1}-dimethyl,N{B1},N{B1}-dimethyl,N{Epsilon-B29}-[2-[2-[2-[[2-[2-[2-[[(4S)-4-carboxy-4-(17-carboxyheptadecanoylamino)butanoyl]amino]ethoxy]ethoxy]acetyl]amino]-ethoxy]ethoxy]acetyl]-[GluA14,HisB25],des-ThrB30-Insulin(human)]”: the half-life at 10 µM in data set [3] (pH 6.5, Half Life of insulin peptide) is 1.1 min; in data set [3] (pH 6.5, Half Life of insulin peptide in presence of 0.1% BBI), more than 1000 min. Also, the “Half Life (fold increase)” value in data set [3] is recorded as more than 910 fold.
